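96-well plates; 48 h exposure; 5 concentrations. Endpoints by linear interpolation between flanking doses. Not reached: highest tested concentration assigned. At the GI50, growth is halved. TGI: total growth inhibition.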

Some test systems named below: UACC-257 melanoma; HCC-2998 colon; HS 578T breast; SNB-19 CNS; SW-620 colon; TK-10 renal; NCI-H522 lung; K-562 leukemia; HOP-92 NSCLC; CCRF-CEM leukemia.
Holding throughout (test): DTP human tumour cell line panel, 48 h

Take `COc1c(OC)c(OC)c2c(=O)cc(-c3ccc(OC(C)C)cc3)oc2c1OC`: the TGI in the assay on UACC-257 melanoma was above 58.9 µM; in the assay with HCC-2998 colon it was above 53.2 µM; in the assay with HS 578T breast it was 52.5 µM; with SNB-19 CNS, above 53.5 µM; in the assay with SW-620 colon it was above 58.8 µM; with TK-10 renal, above 53.9 µM. Besides, the TGI in the assay with NCI-H522 lung is above 58.2 µM; with K-562 leukemia it was above 100 µM; in the assay with HOP-92 NSCLC, 23.4 µM; in the assay with CCRF-CEM leukemia, above 68.5 µM.

With `Cc1nn(C)c2ncnc(N/N=C/c3cccc(O)c3O)c12`, the GI50 is 1.38 µM in the assay on UACC-257 melanoma; 0.853 µM with HCC-2998 colon; 2.29 µM in the assay on HS 578T breast; 0.664 µM in the assay on SNB-19 CNS; 0.48 µM with SW-620 colon; 2.64 µM with TK-10 renal. The GI50 was 0.41 µM in the assay with NCI-H522 lung, 0.387 µM in the assay on K-562 leukemia, 0.747 µM in the assay with HOP-92 NSCLC and 0.179 µM in the assay with CCRF-CEM leukemia. Moreover, the concentration for total growth inhibition (TGI) in the assay on UACC-257 melanoma is above 37.1 µM; with HCC-2998 colon it was above 100 µM; in the assay with HS 578T breast it was above 100 µM; in the assay on SNB-19 CNS, above 48.4 µM; with SW-620 colon, above 100 µM; with TK-10 renal, above 100 µM. Also, the TGI in the assay with NCI-H522 lung was above 48.2 µM; in the assay with K-562 leukemia it was above 100 µM; in the assay with HOP-92 NSCLC, 13.8 µM; with CCRF-CEM leukemia it was above 52.8 µM.

For the compound `CCCCCCCCCCCNC=O`, the TGI in the assay on UACC-257 melanoma is above 100 µM; in the assay with HCC-2998 colon it was 86.1 µM; in the assay on HS 578T breast it was above 100 µM; in the assay with SNB-19 CNS, above 100 µM; in the assay with SW-620 colon, above 100 µM; in the assay with TK-10 renal, above 100 µM. The TGI was 85.3 µM with NCI-H522 lung, 86.1 µM in the assay on K-562 leukemia, above 100 µM in the assay with HOP-92 NSCLC and above 100 µM in the assay on CCRF-CEM leukemia.

For the compound `NC(N)=NC(N)=Nc1ccc(C(=O)O)cc1`, the TGI in the assay on UACC-257 melanoma, in the assay on HCC-2998 colon, in the assay with HS 578T breast, with SNB-19 CNS, in the assay on SW-620 colon and with TK-10 renal was above 100 µM throughout. Moreover, the TGI in the assay with NCI-H522 lung, in the assay with K-562 leukemia, in the assay on HOP-92 NSCLC and with CCRF-CEM leukemia was above 100 µM in each case.

With `O=C1OCC2=C1C(c1cccc(C(F)(F)F)c1)c1cc3c(cc1N2CCO)OCCO3` (centres undefined), the GI50 in the assay on UACC-257 melanoma was above 33.3 µM; in the assay on HCC-2998 colon, 1.1 µM; in the assay with HS 578T breast it was 0.915 µM; in the assay on SNB-19 CNS it was 1.63 µM; in the assay with SW-620 colon it was 1.24 µM; in the assay on TK-10 renal it was above 33.3 µM. Moreover, the GI50 with NCI-H522 lung was 0.488 µM; in the assay with K-562 leukemia it was 0.881 µM; in the assay on HOP-92 NSCLC, 2.7 µM; in the assay on CCRF-CEM leukemia it was 1.5 µM. The TGI with UACC-257 melanoma, in the assay on HCC-2998 colon, with HS 578T breast, in the assay on SNB-19 CNS, in the assay on SW-620 colon and with TK-10 renal was above 33.3 µM in each case. The TGI in the assay with NCI-H522 lung was 2.89 µM; in the assay on K-562 leukemia it was above 33.3 µM; in the assay with HOP-92 NSCLC, above 33.3 µM; with CCRF-CEM leukemia, above 33.3 µM.

Take `C=CC1C(CC2OC(CO)C(O)C(O)C2O)OC=C2C(=O)OCCC21O` (centres undefined): the GI50 with UACC-257 melanoma was 20.4 µM; in the assay on HCC-2998 colon it was 15.3 µM; in the assay with HS 578T breast, 34.6 µM; in the assay with SNB-19 CNS it was 13.8 µM; in the assay on SW-620 colon, 5.38 µM; with TK-10 renal, 26 µM. For the same compound, the GI50 was 4.72 µM with NCI-H522 lung, 6.6 µM in the assay with K-562 leukemia, 1.68 µM in the assay on HOP-92 NSCLC and 5.32 µM in the assay with CCRF-CEM leukemia. The TGI in the assay on UACC-257 melanoma is 50.9 µM; in the assay on HCC-2998 colon, 34.4 µM; in the assay on HS 578T breast, above 100 µM; with SNB-19 CNS, 37.1 µM; with SW-620 colon, 29.9 µM; with TK-10 renal, 90.3 µM. Besides, the TGI with NCI-H522 lung is 34.5 µM; in the assay on K-562 leukemia it was above 100 µM; with HOP-92 NSCLC, 9.35 µM; in the assay with CCRF-CEM leukemia it was 28.9 µM.

Regarding `CC(C)C[C@H](NC(=O)Cn1cccc(CNC(=O)c2ccccc2)c1=O)B(O)O`, the GI50 with UACC-257 melanoma is 0.505 µM; in the assay on HCC-2998 colon, 0.893 µM; with HS 578T breast, 0.335 µM; with SNB-19 CNS, 0.495 µM; in the assay on SW-620 colon, 0.345 µM; in the assay with TK-10 renal it was 0.55 µM. The GI50 was 0.377 µM in the assay on NCI-H522 lung, 1.3 µM in the assay with K-562 leukemia, 0.638 µM with HOP-92 NSCLC and 0.374 µM in the assay on CCRF-CEM leukemia. Moreover, the TGI with UACC-257 melanoma was 3.53 µM; in the assay with HCC-2998 colon it was 2.57 µM; with SNB-19 CNS it was above 100 µM; with SW-620 colon, 6.85 µM; in the assay on TK-10 renal, 4.75 µM; in the assay on NCI-H522 lung it was 2.3 µM. Besides, the TGI was above 100 µM with K-562 leukemia, 4.61 µM with HOP-92 NSCLC and above 20.1 µM with CCRF-CEM leukemia.

Turning to `COc1cc(S(=O)(=O)Nc2nc(-c3ccc(N4C(=O)C(C)SC4c4ccccc4O)cc3)cs2)ccc1Cl` (centres undefined), the GI50 was 32.8 µM in the assay on UACC-257 melanoma; 50.3 µM in the assay with HCC-2998 colon; 43.1 µM in the assay with HS 578T breast; 43.3 µM with SNB-19 CNS; 62 µM in the assay on SW-620 colon; 97.6 µM in the assay with TK-10 renal. The GI50 is 53.7 µM in the assay with NCI-H522 lung, 33.4 µM with K-562 leukemia, 28 µM in the assay with HOP-92 NSCLC and 5.55 µM in the assay on CCRF-CEM leukemia. Further, the TGI with UACC-257 melanoma, with HCC-2998 colon, in the assay on HS 578T breast, in the assay on SNB-19 CNS, in the assay on SW-620 colon and in the assay with TK-10 renal was above 100 µM in each case. The TGI with NCI-H522 lung, in the assay with K-562 leukemia, with HOP-92 NSCLC and in the assay with CCRF-CEM leukemia was above 100 µM each time.

Consider `O=C1NC(=O)C(c2cccc(Cl)c2)=C1Nc1ccc(Cl)c(C(=O)O)c1`, for which the GI50 in the assay on UACC-257 melanoma, with HCC-2998 colon, in the assay with HS 578T breast, with SNB-19 CNS, in the assay with SW-620 colon and in the assay on TK-10 renal was above 25 µM each time. Moreover, the GI50 in the assay on NCI-H522 lung, in the assay with K-562 leukemia, in the assay with HOP-92 NSCLC and in the assay with CCRF-CEM leukemia was above 25 µM throughout. Moreover, the TGI in the assay on UACC-257 melanoma, in the assay with HCC-2998 colon, with HS 578T breast, in the assay with SNB-19 CNS, with SW-620 colon and in the assay on TK-10 renal was above 25 µM each time. Besides, the TGI in the assay on NCI-H522 lung, in the assay with K-562 leukemia, with HOP-92 NSCLC and in the assay with CCRF-CEM leukemia was above 25 µM each time.

With `COc1ccc(C2NN=C3c4ccccc4CCC32)cc1` (centres undefined), the GI50 with UACC-257 melanoma is 19.4 µM; with HCC-2998 colon it was 12.4 µM; with HS 578T breast, 15 µM; in the assay with SNB-19 CNS it was 14.5 µM; in the assay with SW-620 colon, 9.19 µM; with TK-10 renal it was 16.9 µM. Further, the GI50 with NCI-H522 lung is 3.21 µM; in the assay with K-562 leukemia, 2.87 µM; with HOP-92 NSCLC it was 19.4 µM; in the assay with CCRF-CEM leukemia it was 4.64 µM. Moreover, the TGI in the assay with UACC-257 melanoma is 79.4 µM; with HCC-2998 colon, above 100 µM; in the assay on HS 578T breast, above 100 µM; in the assay on SNB-19 CNS, above 100 µM; in the assay with SW-620 colon, above 100 µM; in the assay with TK-10 renal, 71.8 µM. Also, the TGI is 17.7 µM in the assay on NCI-H522 lung, above 100 µM in the assay with K-562 leukemia, above 100 µM with HOP-92 NSCLC and above 100 µM in the assay with CCRF-CEM leukemia.

The record behind these values is PubChem BioAssay (NCI).
